Values of other authors, collected in patent US20130204238A1, “COMBINATION THERAPY” (FOLLICA, INC, priority 2010, published 2013).

Target: GSK3β (Homo sapiens, UniProt P49841)
Conditions: compared with other indirubin derivatives

GSK3β, sequence (P49841 whole entry, species assumed): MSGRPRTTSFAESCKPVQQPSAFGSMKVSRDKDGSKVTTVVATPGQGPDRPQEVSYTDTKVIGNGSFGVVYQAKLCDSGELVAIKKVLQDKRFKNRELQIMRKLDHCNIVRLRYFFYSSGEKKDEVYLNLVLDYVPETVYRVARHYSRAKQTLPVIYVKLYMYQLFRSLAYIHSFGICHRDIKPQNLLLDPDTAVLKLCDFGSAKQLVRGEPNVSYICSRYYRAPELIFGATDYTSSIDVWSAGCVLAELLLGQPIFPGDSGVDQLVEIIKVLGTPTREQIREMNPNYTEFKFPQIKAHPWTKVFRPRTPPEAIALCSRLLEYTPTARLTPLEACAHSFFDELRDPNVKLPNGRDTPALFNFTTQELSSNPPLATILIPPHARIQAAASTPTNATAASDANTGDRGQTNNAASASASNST

Row | Compound | pharmacological properties | toxicity
1 | indirubin 3′-monoxime | better pharmacological properties | –
2 | O=C1Nc2ccc(Cl)cc2/C1=C1/Nc2ccccc2C1=O [5-chloroindirubin] | better pharmacological properties | reduced toxicity
